# Measured values published in PubChem BioAssay AID248 (DTP/NCI, 2004).
# Several values for one entry are separate records, joined by “and”; a condition that tells them apart may be missing. Equal values may be shown once. Inconclusive results and toxic doses are left out.
# Test system: L1210 leukemia ip in BDF1 mice, survival T/C
# Assay: NCI In Vivo Anticancer Drug Screen. Data for tumor model L1210 Leukemia (intraperitoneal) in B6D2F1 (BDF1) mice
# Conditions: endpoint: mean survival time, higher = longer survival
# How it was run: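 Transplantable tumor model; survival measured in treated vs vehicle control mice. Value = treated/control.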
# [1] = dose: 50.0 mg/kg/injection, schedule: Q01DX001 (ip), vehicle: carboxymethylcellulose (CMC)
# [2] = dose: 100.0 mg/kg/injection, schedule: Q01DX001 (ip), vehicle: carboxymethylcellulose (CMC)
# [3] = dose: 200.0 mg/kg/injection, schedule: Q01DX001 (ip), vehicle: carboxymethylcellulose (CMC)
# [4] = dose: 400.0 mg/kg/injection, schedule: Q01DX001 (ip), vehicle: carboxymethylcellulose (CMC)
# [5] = dose: 100.0 mg/kg/injection, schedule: Q04DX003 (ip), vehicle: saline
# [6] = dose: 200.0 mg/kg/injection, schedule: Q04DX003 (ip), vehicle: saline
# [7] = dose: 400.0 mg/kg/injection, schedule: Q04DX003 (ip), vehicle: saline
compound,measurement,setting,value
O=C1c2ccccc2-c2c(Br)c3ccccc3c(=O)n21,T/C,[1],91 % of control
same,T/C,[2],89 % of control
same,T/C,[3],91 % of control
same,T/C,[4],94 % of control
CCOc1ccc(-n2c(=O)c(N=Nc3ccc(Cl)cc3)c(O)n(-c3ccc(C)cc3)c2=S)cc1,T/C,"dose: 100.0 mg/kg/injection, schedule: Q01DX001 (ip), vehicle: Klucel (hydroxypropylcellulose) (HPC)",100 % of control
same,T/C,"dose: 200.0 mg/kg/injection, schedule: Q01DX001 (ip), vehicle: Klucel (hydroxypropylcellulose) (HPC)",107 % of control
same,T/C,"dose: 400.0 mg/kg/injection, schedule: Q01DX001 (ip), vehicle: Klucel (hydroxypropylcellulose) (HPC)",100 % of control
Cc1cc(C)c(NC(=O)N(CCCl)N=O)c(C)c1,T/C,"dose: 11.25 mg/kg/injection, schedule: Q01DX001 (ip), vehicle: other",155 % of control
same,T/C,"dose: 15.0 mg/kg/injection, schedule: Q01DX001 (ip), vehicle: other",150 % of control
same,T/C,"dose: 16.0 mg/kg/injection, schedule: Q01DX001 (ip), vehicle: other",174 % of control
same,T/C,"dose: 20.0 mg/kg/injection, schedule: Q01DX001 (ip), vehicle: other",203 % of control
same,T/C,"dose: 22.5 mg/kg/injection, schedule: Q01DX001 (ip), vehicle: other",234 % of control
same,T/C,"dose: 25.0 mg/kg/injection, schedule: Q01DX001 (ip), vehicle: other",166 % of control
same,T/C,"dose: 30.0 mg/kg/injection, schedule: Q01DX001 (ip), vehicle: other",191 % of control
same,T/C,"dose: 31.0 mg/kg/injection, schedule: Q01DX001 (ip), vehicle: other",165 % of control
same,T/C,"dose: 38.0 mg/kg/injection, schedule: Q01DX001 (ip), vehicle: other",201 % of control
same,T/C,"dose: 45.0 mg/kg/injection, schedule: Q01DX001 (ip), vehicle: other",252 % of control and 322 % of control
same,T/C,"dose: 57.0 mg/kg/injection, schedule: Q01DX001 (ip), vehicle: other",262 % of control
same,T/C,"dose: 62.0 mg/kg/injection, schedule: Q01DX001 (ip), vehicle: other",217 % of control
same,T/C,"dose: 86.0 mg/kg/injection, schedule: Q01DX001 (ip), vehicle: other",227 % of control
same,T/C,"dose: 90.0 mg/kg/injection, schedule: Q01DX001 (ip), vehicle: other",100 % of control
O=C(O)COc1ccc(C2CCc3ccccc32)cc1 (centres undefined),T/C,"dose: 75.0 mg/kg/injection, schedule: Q01DX001 (ip), vehicle: Klucel (hydroxypropylcellulose) (HPC)",104 % of control
same,T/C,"dose: 150.0 mg/kg/injection, schedule: Q01DX001 (ip), vehicle: Klucel (hydroxypropylcellulose) (HPC)",101 % of control
same,T/C,"dose: 300.0 mg/kg/injection, schedule: Q01DX001 (ip), vehicle: Klucel (hydroxypropylcellulose) (HPC)",101 % of control
CC(/C=N/N(C)C)=N\N(C)C,T/C,[5],92 % of control
same,T/C,[6],102 % of control
CCOC(=O)/C(C#N)=C/c1cccn1Cc1cc2c(cc1[N+](=O)[O-])OCO2,T/C,"dose: 25.0 mg/kg/injection, schedule: Q04DX002 (ip), vehicle: Klucel (hydroxypropylcellulose) (HPC)",104 % of control
same,T/C,"dose: 50.0 mg/kg/injection, schedule: Q04DX002 (ip), vehicle: Klucel (hydroxypropylcellulose) (HPC)",100 % of control
same,T/C,"dose: 100.0 mg/kg/injection, schedule: Q04DX002 (ip), vehicle: Klucel (hydroxypropylcellulose) (HPC)",100 % of control
N#CC1OB(O)c2ccccc21 (centres undefined),T/C,[5],93 % of control
same,T/C,[6],100 % of control
same,T/C,[7],93 % of control
c1ccc2c(c1)ccc1c(C3CO3)cccc12 (centres undefined),T/C,"dose: 100.0 mg/kg/injection, schedule: Q04DX002 (ip), vehicle: saline with Tween-80",101 % of control
same,T/C,"dose: 200.0 mg/kg/injection, schedule: Q04DX002 (ip), vehicle: saline with Tween-80",98 % of control
same,T/C,"dose: 400.0 mg/kg/injection, schedule: Q04DX002 (ip), vehicle: saline with Tween-80",88 % of control
O=C1CCCC1CNCc1ccccc1 (centres undefined),T/C,"dose: 75.0 mg/kg/injection, schedule: Q01DX001 (ip), vehicle: saline",103 % of control
same,T/C,"dose: 150.0 mg/kg/injection, schedule: Q01DX001 (ip), vehicle: saline",100 % of control
Cc1nc(-c2ccccc2)oc1-c1ccccc1,T/C,[5],92 % of control
same,T/C,[6],95 % of control
same,T/C,[7],92 % of control
O=c1[nH]cnc2[nH]cc([N+](=O)[O-])c12,T/C,[1],101 % of control
same,T/C,[2],89 % of control
same,T/C,[3],98 % of control and 87 % of control
same,T/C,[4],93 % of control and 97 % of control
